Source: the METLIN SMRT retention time set (Domingo-Almenara et al. 2019)

assay: gradient 5% acetonitrile 3 min, to 50% in 2 min, to 85% in 15 min, held 3 min, 100 µL/min; settings: column: Zorbax Extend-C18 2.1 x 50 mm; eluents: water / acetonitrile, 0.1% formic acid
Outline: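 Pure standards were run in mixtures of ~100 molecules by HPLC coupled to a quadrupole time-of-flight mass spectrometer. The column was a Zorbax Extend-C18 (2.1 × 50 mm, 1.8 μm) at 100 μL/min, with water and acetonitrile each containing 0.1% formic acid, in positive and negative ionization mode. Dead and dwell volumes were 40 μL and 900 μL. Retention time was taken from computationally picked adduct peaks, each manually inspected, with data collected over 3 months.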

SMILES	RP-LC retention time
CCC(=O)N1CCN(Cc2nc3cc(NC(=O)CC(C)C)ccc3n2C)CC1	603 s
CCCn1cc(CCNS(=O)(=O)c2cccc(F)c2)c2cccnc21	837 s
COc1ccc(OC)c(S(=O)(=O)N2CCCC(C(=O)NC(C)(C)C)C2)c1 (stereo not given)	768 s
CCOC(=O)C(C)(C)Sc1nnc(N2CCN(c3ccccc3)CC2)s1	997 s
CCOC(=O)Cn1c(C2CC(=O)N(c3cc(OC)ccc3OC)C2)nc2ccccc21 (stereo not given)	725 s
CC(=O)N1CCc2ccc(NS(=O)(=O)CCN3C(=O)CCCC3=O)cc21	615 s
CN(Cc1ccccc1)c1ccc(-c2noc(CN3CCCC3)n2)cn1	675 s
Cc1cc(C)c(-c2noc(C)n2)c(NC(=O)c2cccc(Cl)c2)n1	827 s
COc1ccc(OCc2nc(-c3ccc4c(c3)nc(C)c(=O)n4C3CCCC3)no2)cc1	1170 s
CC(C)c1noc(-c2ccc(-n3cnc(C(=O)NC4CCCCC4)c3)nc2)n1	741 s
Cc1cccc(CN2C(=O)CN(S(C)(=O)=O)CC2(C)C(=O)NCc2ccc(F)cc2)c1 (stereo not given)	856 s
Cc1noc(C)c1S(=O)(=O)N1CCC2(CC1)CC(OCc1ccccc1)CCO2 (stereo not given)	1070 s
COc1ccccc1C(=O)Nc1nnc(C2CC(=O)N(c3ccccc3)C2)o1 (stereo not given)	720 s
Cc1ccc(-c2noc(-c3cccc(S(=O)(=O)N4CCN(c5ccccn5)CC4)c3)n2)cc1	995 s
O=C(NCc1cccnc1)c1ccc2c(c1)N(CC(=O)N1CCCC1)C(=O)CO2	619 s
CCn1nccc1-c1cccc(-c2noc(C(NC(=O)c3ccco3)C(C)C)n2)c1 (stereo not given)	973 s
Cc1ccc(C(=O)N2CCN(c3ccc(=O)n(-c4ccc(Cl)cc4)n3)CC2)s1	885 s
Cc1ccc(CN2C(=O)NC3(CCN(C(=O)c4sccc4C)CC3)C2=O)cc1	825 s
CCOC(=O)c1c(C)[nH]c(C(=O)N2CCC(CC(=O)N3CCN(c4ccccn4)CC3)CC2)c1C	619 s
CC1=C(C(=O)NCCN2CCOCC2)C2(CCN(Cc3ccccc3)CC2)OC1=O	634 s
O=C(Nc1ccccc1)N1CCCC1c1nc(-c2cccc(Cl)c2)no1 (stereo not given)	1030 s
COc1ccc(-c2noc(C3CCCN3C(=O)NCc3ccco3)n2)cc1 (stereo not given)	855 s

SMILES	RP-LC retention time
CCCC(=O)Nc1ccc(OCc2cc(C(=O)NC(C)CC)no2)cc1 (stereo not given)	819 s
CCOC(=O)c1[nH]c(C)c(CCC(=O)NCCN2CCCCCC2)c1C	616 s
COc1ccc(C)c2sc(NCCCn3ccnc3)nc12	552 s
O=C(O)c1cc(=O)c2cc(Cl)ccc2[nH]1	692 s
O=C(CC1COc2ccccc2NC1=O)NCCc1cccs1 (stereo not given)	689 s
CCc1ccc(NS(=O)(=O)c2cc(-c3ccn[nH]3)sc2C)cc1	854 s
CC(=O)c1ccc(N2CCN(C(=O)CN3C(=O)C4C5C=CC(C5)C4C3=O)CC2)cc1 (stereo not given)	644 s
COc1ccccc1NC(=O)C1CCN(S(=O)(=O)c2cc(C(=O)N(C)C)cs2)CC1	789 s
Cc1cccc(-c2nc(Cn3nnc(C(=O)NCc4ccc(C(F)(F)F)cc4)c3C)c(C)o2)c1	1210 s
COC(=O)c1cc2c(=O)n(-c3nccs3)ccc2nc1C	896 s
O=C1CC2(CCN(S(=O)(=O)c3cc(F)ccc3F)CC2)Oc2ccccc21	929 s
CCOC(=O)Nc1nc(CC(=O)NCCc2c[nH]c3ccccc23)cs1	680 s
CC1CCCCN1CCCNC(=O)CCCN1C(=O)CCn2nc(-c3cccn3C)cc21 (stereo not given)	545 s
O=C(NCCc1c[nH]c2ccc(F)cc12)c1ccc(F)cc1-n1cnnn1	756 s
Cc1ccc(-c2noc(Cn3c(=O)n(Cc4ccco4)c(=O)c4ccccc43)n2)cc1	1110 s
O=C(Cn1c(=O)c2cc(C3CC3)nn2c2ncccc21)NCc1ccc(Cl)cc1	791 s
Cc1ccccc1OCC(=O)NCCN1CCN(S(C)(=O)=O)CC1	558 s
COc1ccc2c(c1)C1(CCN(S(=O)(=O)c3cccc(F)c3)C1)C(=O)N2C (stereo not given)	874 s
CCC(C)NC(=O)c1cn(-c2cc(-c3nc(C(C)C)no3)ccn2)cn1 (stereo not given)	907 s
Cc1cc2c(cc1S(=O)(=O)N1CCCC1C(=O)Nc1cccc(Cl)c1)OCC(=O)N2 (stereo not given)	817 s
Cc1cc2c(=O)n(CC(=O)NCc3ccccc3Cl)c3cccnc3n2n1	729 s
Cc1c(Cl)cccc1N1C(=O)CN(S(C)(=O)=O)CC1(C)C(=O)NC1CCCCCC1 (stereo not given)	938 s

SMILES	RP-LC retention time
O=C(c1cccc(Cl)c1)N1CCC2(CC1)OCC(C(=O)N1CCCC1)N2C(=O)c1cccc(F)c1 (stereo not given)	765 s
O=C(NCCS(=O)(=O)N1CCc2ccccc2C1)c1ccc([N+](=O)[O-])o1	752 s
CCN1CCN(c2c(S(=O)(=O)c3ccc(OC)cc3)cnc3ccc(OC)cc23)CC1	640 s
COc1ccc(-n2c(=O)c(C(=O)NC3CCCC3)c(O)c3cccnc32)cc1	1170 s
CC(C)(C)CC(=O)N1CCCC(C(=O)N2CCOCC2)C1 (stereo not given)	673 s
O=C(c1cccc(F)c1)N1CCCC1c1nc(-c2ccccc2)no1 (stereo not given)	946 s
COc1cc(C(C)c2cc3c(cc2OCCO)OCO3)cc(OC)c1OC (stereo not given)	798 s
O=c1c2cc(-c3ccc(F)cc3)nn2cnn1Cc1nc(-c2ccccc2Cl)no1	1110 s
COc1ccc(OC)c(-c2cn3ccn(-c4ccc(Br)cc4)c(=O)c3n2)c1	912 s
CCOc1nccnc1N1CCC(N(C)C(=O)c2ccsc2)C1 (stereo not given)	724 s
O=C(Nc1cccc(Cl)c1F)N1CC(F)(F)C[C@H]1CN1CCCC1	662 s
Cc1csc(-c2cc(S(=O)(=O)Nc3ccc(S(N)(=O)=O)cc3)c(C)s2)n1	797 s
Cc1ccc(F)c(Nc2ncccc2S(N)(=O)=O)c1	826 s
O=C(CSc1ccc(N2CCCC(C(=O)NC3CC3)C2)nn1)Nc1cc(F)ccc1F (stereo not given)	617 s
CCOC(=O)c1c(C)[nH]c(C)c1S(=O)(=O)N1CCC(C(=O)Nc2ccc(C)cn2)CC1	646 s
CC(NC(=O)C1c2ccccc2CCN1C(=O)C1CC1)c1ccc(F)cc1 (stereo not given)	875 s
O=C(NCC(c1cccnc1)c1c[nH]c2ccccc12)Nc1cccc(Br)c1 (stereo not given)	714 s
Cc1oc(-c2ccc(C(=O)NCCCN3CCN(C)CC3)cc2)nc1CSc1ccccc1	645 s
CCc1ccc(CNC(=O)C2Cc3cc(S(=O)(=O)N(CC)CC)ccc3N2C(C)=O)cc1 (stereo not given)	617 s
CCn1cc(S(=O)(=O)NCc2cccc(C)c2)c2cccnc21	845 s
CCC(C(=O)NCCN1CCN(C)CC1)n1nc(C)c2sc3ccccc3c2c1=O (stereo not given)	629 s
